Laboratory results published in US11364220B2, “Compounds and methods for inhibiting CPY26 enzymes” (Queen's University at Kingston, priority 2016, dated 2022).
Where two headings read alike, the source gives them in different places.

What was measured:
CYP26B1 = CYP26B1 (Homo sapiens (Human), UniProt Q9NR63); test: Cell-based inhibitor assay, [H]-RA metabolism in CYP26B1 stably transfected HeLa cells; settings: for IC50: read-out: IC50 26B1
Method: (§1) CYP26A1 or CYP26B1 stably transfected HeLa cells were maintained in Minimum Essential Medium (MEM) containing 10% fetal bovine serum (FBS) and 100 μg/mL hygromycin. Exponentially growing cells were harvested by incubation in trypsin. Cells were then collected and re-plated in 48-well culture plates at 5×10^5 cells in 0.2 mL of culture medium containing 0.05 μCi [H]-RA in the presence or absence of increasing concentrations of a test compound. The test compounds were diluted in dimethyl sulfoxide (DMSO) and then added in duplicate to wells at 0.01, 0.1, 1, 10 and 100 μM final concentration. […] Cells were incubated for 3 hours at 37° C. Retinoids were then extracted using the procedure of Bligh, et al., (1959), Canadian Journal of Biochemistry 37, 911-917, which was modified by using dichloromethane instead of chloroform. Each sample's water soluble radioactivity level was quantified using a β-scintillation counter (using Ecolume scintillation fluid, available from MP Biomedicals of Solon, Ohio, USA).

[1] = tested on: RA sensitive reporter construct pCYP26A1-luc in MCF-7 cells; test: Retinoid activity assay, RA sensitive pCYP26A1-luc reporter in MCF-7 cells; format: cell-based; settings: 24 hours, firefly relative to Renilla luciferase
Source text: This retinoid activity assay measures the ability of test compounds to induce expression of a transiently transfected RA sensitive reporter construct. In this assay, MCF-7 cells are transfected with a construct comprising an upstream promoter of the CYP26A1 gene containing 2 RA response elements driving expression of firefly luciferase (pCYP26A1-luc). Since CYP26A1 is highly inducible by RA in these cells, this construct serves as a sensitive reporter of retinoid-like transcriptional activity.
MCF-7 cells were maintained in RPMI-1640 medium containing 10% FBS. Exponentially growing cells were harvested by incubation in trypsin. Cells were then collected and plated in 24-well plates at 50,000 cells/well. Once cells reached 80-90% confluence (e.g., the next day), cells were transfected with two plasmids. The first plasmid was CYP26A1-luc construct (375 ng). The second plasmid was a control plasmid comprising the Renilla luciferase gene driven by constitutive thymidine kinase promoter (pRL-tk) (25 ng). Transfection was performed using FuGene 6 transfection reagent (Promega) with a 1:3 ratio of DNA:FuGene. 24 hours after transfection, cells were treated with test compounds diluted in DMSO in triplicate at 0.1, 1 and 10 μM final concentrations. As a positive control for reporter activation, cells were also treated with RA diluted in DMSO at the same concentrations listed above. DMSO treatment alone served as a negative control. After 24 hours of treatment, cells were harvested in passive lysis buffer (Promega) and luciferase activity in cell lysates were read using a luminometer. Data are expressed as the activity of firefly luciferase relative to Renilla luciferase (see Table 3). For CYP26A1 inhibitor compounds, no activation of the reporter was detected, while the related retinoid-like compound induces luciferase expression.

CYP26A1 = CYP26A1 (Homo sapiens (Human), UniProt O43174); test: Cell-based inhibitor assay, [H]-RA metabolism in CYP26A1 stably transfected HeLa cells; settings: for IC50: CYP26A1 transfected HeLa cells, 3 hours at 37° C., inhibition of all trans-RA metabolism, read-out: IC50 26A1; for inhibition of CYP26A1-mediated RA metabolism compared with ketoconazole (in words): see IC50 values in Table 2
Method: as §1

[2] = CYP26B1 transfected HeLa cells, 3 hours at 37° C., inhibition of all trans-RA metabolism

Sequence of CYP26A1 (O43174 whole entry, species assumed): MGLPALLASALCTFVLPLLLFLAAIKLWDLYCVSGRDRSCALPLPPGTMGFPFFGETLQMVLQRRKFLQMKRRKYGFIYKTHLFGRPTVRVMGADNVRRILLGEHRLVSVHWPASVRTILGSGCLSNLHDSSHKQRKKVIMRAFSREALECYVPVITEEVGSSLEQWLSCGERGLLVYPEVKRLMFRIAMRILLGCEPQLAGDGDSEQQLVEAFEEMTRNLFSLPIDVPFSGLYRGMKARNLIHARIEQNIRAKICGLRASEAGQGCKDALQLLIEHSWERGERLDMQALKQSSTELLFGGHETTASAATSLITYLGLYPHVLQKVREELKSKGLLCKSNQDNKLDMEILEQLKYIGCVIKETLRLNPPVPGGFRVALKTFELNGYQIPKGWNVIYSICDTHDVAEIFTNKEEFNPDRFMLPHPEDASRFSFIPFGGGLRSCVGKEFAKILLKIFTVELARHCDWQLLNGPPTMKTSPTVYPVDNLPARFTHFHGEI
Sequence of CYP26B1 (Q9NR63 whole entry, species assumed): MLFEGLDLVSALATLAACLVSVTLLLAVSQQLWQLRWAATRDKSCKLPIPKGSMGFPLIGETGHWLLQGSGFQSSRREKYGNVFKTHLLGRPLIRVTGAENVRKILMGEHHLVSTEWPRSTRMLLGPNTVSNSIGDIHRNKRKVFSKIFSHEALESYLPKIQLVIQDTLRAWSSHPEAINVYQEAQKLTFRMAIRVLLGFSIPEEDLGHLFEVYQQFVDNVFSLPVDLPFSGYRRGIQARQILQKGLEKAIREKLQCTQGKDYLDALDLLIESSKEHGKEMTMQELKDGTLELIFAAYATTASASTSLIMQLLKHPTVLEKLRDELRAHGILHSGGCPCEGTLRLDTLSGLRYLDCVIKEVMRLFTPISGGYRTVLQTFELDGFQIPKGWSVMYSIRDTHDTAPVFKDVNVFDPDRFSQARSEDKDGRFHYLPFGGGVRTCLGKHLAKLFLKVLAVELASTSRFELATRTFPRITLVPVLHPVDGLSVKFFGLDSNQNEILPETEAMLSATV

Row | IC50 (CYP26B1; [2]) | IC50 (CYP26A1) | IC50 (CYP26B1) | Compound | Luciferase Activity RLU Avg ([1]; 0.1 μM) | Luciferase Activity RLU Avg ([1]; 1 μM) | Luciferase Activity RLU Avg ([1]; 10 μM) | inhibition of CYP26B1 enzyme (in words) (CYP26B1) | inhibitory activity towards CYP26A1 (in words) (CYP26A1) | inhibition of CYP26A1-mediated RA metabolism compared with ketoconazole (in words) (CYP26A1)
1 | 8.81 µM | 5.66 µM | – | CC1(C)CCC(C)(C)c2cc(C(=O)Nc3ccc(CC(=O)O)cc3)ccc21 [Cmpd 01] | 0.0041 RLU | 0.0053 RLU | 0.0077 RLU | – | – | –
2 | 2.06 µM | 0.83 µM | – | Cc1cc2c(cc1C(=O)Nc1ccc(CC(=O)O)cc1)C(C)(C)CCC2(C)C [Cmpd 02] | 0.004 RLU | 0.0042 RLU | 0.0066 RLU | None of the above compounds inhibited the CYP26B1 enzyme | selective inhibitory activity towards CYP26A1 | comparable to or better than ketoconazole
3 | 65.4 µM | > 100 µM | – | CN(C(=O)c1ccc2c(c1)C(C)(C)CCC2(C)C)c1ccc(CC(=O)O)cc1 [Cmpd 03] | 0.0041 RLU | 0.0039 RLU | 0.005 RLU | – | – | –
4 | – | 14 µM | – | C=C(Cc1ccc(NS(=O)(=O)c2ccc3c(c2)C(C)(C)CCC3(C)C)cc1)OC [Cmpd 04A] | – | – | – | – | – | –
5 | – | 8.24 µM | – | C=C(Cc1ccc(NS(=O)(=O)c2cc3c(cc2Br)C(C)(C)CCC3(C)C)cc1)OC [Cmpd 04B] | – | – | – | – | – | –
6 | 18.9 µM | 1.14 µM | – | CC1(C)CCC(C)(C)c2cc(S(=O)(=O)Nc3ccc(CC(=O)O)cc3)ccc21 [Cmpd 04] | 0.0046 RLU | 0.0035 RLU | – | None of the above compounds inhibited the CYP26B1 enzyme | selective inhibitory activity towards CYP26A1 | comparable to or better than ketoconazole
7 | 11.5 µM | 39.7 µM | – | CC1(C)CCOc2ccc(C(=O)Nc3ccc(CC(=O)O)cc3)cc21 [Cmpd 05] | – | – | – | – | – | –
8 | 42.3 µM | 1.29 µM | – | CC(C)c1cc2c(cc1C(=O)Nc1ccc(CC(=O)O)cc1)C(C)(C)CCC2(C)C [Cmpd 06] | 0.0021 RLU | 0.002 RLU | 0.0018 RLU | None of the above compounds inhibited the CYP26B1 enzyme | selective inhibitory activity towards CYP26A1 | comparable to or better than ketoconazole
9 | – | – | – | Cc1cc2c(cc1S(=O)(=O)Nc1ccc(CC(=O)O)cc1)C(C)(C)CCC2(C)C [Cmpd 07] | 0.0016 RLU | 0.0019 RLU | 0.0011 RLU | – | – | –
10 | 19.2 µM | 3.17 µM | – | CC1(C)CCC(C)(C)c2cc(NC(=O)c3ccc(CC(=O)O)cc3)ccc21 [Cmpd 08] | 0.0025 RLU | 0.0019 RLU | 0.0028 RLU | – | – | –
11 | – | 80.5 µM | – | C=C(Cc1ccc(NS(=O)(=O)c2ccc3c(c2)C(C)(C)CCC3(C)C)cc1F)OC [Cmpd 09A] | – | – | – | – | – | –
12 | 14.2 µM | 2.2 µM | – | CC1(C)CCC(C)(C)c2cc(S(=O)(=O)Nc3ccc(CC(=O)O)c(F)c3)ccc21 [Cmpd 09] | 0.0018 RLU | 0.0017 RLU | 0.0012 RLU | – | – | –
13 | 0.55 µM | 8.23 µM | – | Cc1cc2c(c(C)c1C(=O)Nc1ccc(CC(=O)O)cc1)C(C)(C)CCC2(C)C [Cmpd 10] | 0.073 RLU | 0.076 RLU | 0.084 RLU | – | – | –
14 | > 1000 µM | 20 µM | – | CC(C)c1cc2c(cc1S(=O)(=O)Nc1ccc(CC(=O)O)cc1)C(C)(C)CCC2(C)C [Cmpd 11] | 0.064 RLU | 0.062 RLU | 0.044 RLU | – | – | –
15 | > 100 µM | 6.2 µM | – | Cc1cc2c(cc1S(=O)(=O)Nc1ccc(C3(C(=O)O)CC3)cc1)C(C)(C)CCC2(C)C [Cmpd 13] | 0.113 RLU | 0.07 RLU | 0.04 RLU | – | – | –
16 | > 100 µM | 28.4 µM | – | Cc1cc2c(cc1S(=O)(=O)Nc1ccc(C(=O)O)cc1)C(C)(C)CCC2(C)C [Cmpd 14] | 0.111 RLU | 0.125 RLU | 0.134 RLU | – | – | –
17 | 11.9 µM | 1.77 µM | – | Cc1cc2c(cc1C(=O)Nc1ccc(C(C)(C)C(=O)O)cc1)C(C)(C)CCC2(C)C [Cmpd 16] | 0.166 RLU | 0.183 RLU | 0.155 RLU | None of the above compounds inhibited the CYP26B1 enzyme | selective inhibitory activity towards CYP26A1 | comparable to or better than ketoconazole
18 | 0.29 µM | 38.7 µM | – | CCC(CC)(C(=O)O)c1ccc(NS(=O)(=O)c2ccc3c(c2)C(C)(C)CCC3(C)C)cc1 [Cmpd 17] | 0.023 RLU | 0.026 RLU | 0.038 RLU | – | – | –
19 | 9.07 µM | > 1000 µM | – | CCC(CC)(C(=O)O)c1ccc(NS(=O)(=O)c2cc3c(cc2C)C(C)(C)CCC3(C)C)cc1 [Cmpd 18] | 0.0683 RLU | 0.0597 RLU | 0.05 RLU | – | – | –
20 | > 100 µM | 0.741 µM | – | Cc1cc2c(cc1S(=O)(=O)Nc1ccc(C(C(=O)O)C(C)C)cc1)C(C)(C)CCC2(C)C (stereo not drawn) [Cmpd 19] | 0.0244 RLU | 0.019 RLU | 0.0076 RLU | None of the above compounds inhibited the CYP26B1 enzyme | selective inhibitory activity towards CYP26A1 | comparable to or better than ketoconazole
21 | – | 1.9 µM | 21.8 µM | Cc1cc(S(=O)(=O)Nc2ccc(CC(=O)O)cc2)cc2c1OC(C)(C)CC2(C)C [Cmpd 21] | – | – | – | None of the above compounds inhibited the CYP26B1 enzyme | selective inhibitory activity towards CYP26A1 | comparable to or better than ketoconazole
